Reference: patent US20250222017A1, “METHODS OF USING AVERMECTIN COMPOSITIONS FOR THE TREATMENT OF NEUROLOGICAL DISORDERS AND DOSING REGIMENS” (priority 2022, published 2025)
“Also recorded” adds a separate entry of the source. Where two headings read alike, the source gives them in different places.

Legend:
focal seizures = conditions: cited from earlier work
[1] = test system: pentylenetetrazol (PTZ)-induced ictal brain activity; test: Modulation of PTZ-induced seizures, BOLD fMRI; format: in vivo, male Wistar rats; conditions: positive control, Wistar rats
Procedure: Functional MRI (fMRI) was performed using a high-field preclinical MRI system in anesthetized male Wistar rats in order to determine the modulation of pentylenetetrazol (PTZ)-induced ictal brain activity by chronic treatment with test compound (TC). […] Vehicle and 3 mg/kg Alprazolam served as controls (see, Table 11). Seizures were induced with PTZ in each experimental group. A schematic of the study design can be seen in FIG. 6. Various physiological parameters were also measured throughout the experiment including body weight, CO2 levels, blood pH, and heart rate. […] Vehicle and 3 mg/kg Alprazolam served as controls (see, Table 12).

human CD4+ T cells = test: Human CD4+ T cells activated under Th17 skewing conditions, in vitro; format: cell-based; conditions: data not shown
spasms = test: Two-stage model of infantile spasms (NMDA-induced); format: in vivo, Sprague-Dawley rats; conditions: spasms triggered on P15, rats
Text: A two-stage model of infantile spasms was developed (FIG. 19A). Pregnant Sprague-Dawley rats receive two injections of betamethasone on gestational (G) day 15. Offspring of those pregnancies are used for experiments during infancy, postnatal days (P) 10-15. Spasms are induced by i.p. injection of N-methyl-D-aspartic acid (NMDA), which is graded depending on the postnatal age of the subjects.
Days of dosing were P10, P11, P12, P13, P14 and P15.

EAE = test: Experimental autoimmune encephalomyelitis (EAE) model of MS; format: in vivo; conditions: EAE in C57BL/6 mice; 1, 2, 4 mg/kg oral once daily, Day 14 to Day 34
Procedure: EAE is induced in C57BL/6 mice by immunization with MOG35-55 or MOG1-12s in CFA emulsion followed by administration of pertussis toxin (PTX) in PBS. […] Fingolimod (FTY720, Gilenya) is the most commonly used positive control in this model.
Vehicle was 1.6% DMSO in water. […] These were frozen at −20° C. Every 3 to 4 days, one aliquot was thawed and diluted with water to create a fine suspension at 0.8 mg/mL (for 4 mg/kg dosing). Final DMSO concentration was 1.6%. […] FTY720 stock solution (30 mg/mL in ethanol) was prepared for all ongoing studies. Daily, the FTY720 stock solution was diluted with water to the final dosing concentration of 0.6 mg/mL.
EAE was induced on Day 0 by myelin oligodendrocyte glycoprotein (MOG35-55)/complete Freund's adjuvant (CFA) immunization, followed by pertussis toxin (PTX) injections on Days O and 1. Treatment was therapeutic, starting on Day 14. […] Treatment continued through Day 34. Mice were observed through the end of the study, Day 35.
Clinical scores were assessed as follows: 1=limp tail, 2=partial hind leg paralysis, 3=complete hind leg paralysis, 4=complete hindleg and partial front leg paralysis; 5=moribund.

NC(=O)N1c2ccccc2C[C@H](O)c2ccccc21 [APTIOM, Eslicarbazepine]
Placebo-adjusted >50% Focal Seizure Reduction (focal seizures; 1200 mg): 20% | Placebo-adjusted Median Reduction in Focal Seizure Frequency (focal seizures; 2000 mg): 14-24%

Cc1nnc2n1-c1ccc(Cl)cc1C(c1ccccc1)=NC2 [Alprazolam]
PTZ-induced brain activity (BOLD fMRI) ([1]; 3 mg/kg i.p., 1 dose, 3 mg/kg): effectively cancelled PTZ-induced brain activity; also recorded: Vehicle vs. Alprazolam in all

CCC[C@@H]1CC(=O)N([C@@H](CC)C(N)=O)C1 [BRIVIACT, Brivaracetam]
Placebo-adjusted >50% Focal Seizure Reduction (focal seizures; 200 mg): 18% | Placebo-adjusted Median Reduction in Focal Seizure Frequency (focal seizures; 200 mg): 26%

CN1C(=O)CN=C(c2ccccc2)c2cc(Cl)ccc21 [Diazepam]
PTZ-induced brain activity (BOLD fMRI) ([1]; dose not given): effectively cancelled PTZ-induced brain activity

CC[C@@H](C(N)=O)N1CCCC1=O [KEPPRA, Leviteracetam]
Placebo-adjusted >50% Focal Seizure Reduction (focal seizures; 3000 mg): 29% | Placebo-adjusted Median Reduction in Focal Seizure Frequency (focal seizures; 3000 mg): 23-31%

COC[C@@H](NC(C)=O)C(=O)NCc1ccccc1 [VIMPAT, Lacosamide]
Placebo-adjusted >50% Focal Seizure Reduction (focal seizures; 400 mg): 17% | Placebo-adjusted Median Reduction in Focal Seizure Frequency (focal seizures; 400 mg): 15-29%

NC(=O)O[C@@H](Cn1ncnn1)c1ccccc1Cl [XCOPRI, Cenobamate]
Placebo-adjusted >50% Focal Seizure Reduction (focal seizures; 400 mg): 39% | Placebo-adjusted Median Reduction in Focal Seizure Frequency (focal seizures; 4200 mg): 31%

Cc1cc(N2CCc3cc(F)ccc3C2)cc(C)c1NC(=O)CC(C)(C)C [XEN1101]
Placebo-adjusted >50% Focal Seizure Reduction (focal seizures; 25 mg): 40% | Placebo-adjusted Median Reduction in Focal Seizure Frequency (focal seizures; 25 mg): 35%

ivermectin
FoxP3 mRNA levels (human CD4+ T cells): up-regulation | increase in the percentage of Foxp3+ T cells (human CD4+ T cells): 50% | occurrence of spasms in comparison to controls (vehicle) (spasms; 2 mg/kg i.p. daily P10-P15): significantly suppressed occurrence of spasms; also recorded: significantly fewer spasms | occurrence of spasms in comparison to controls (vehicle) (spasms; 4 mg/kg i.p. daily P10-P15): significantly suppressed occurrence of spasms; also recorded: significantly fewer spasms | limb paralysis (clinical score) (EAE): significantly downregulates
